Results published in US20170240535A1, “HDAC1/2 INHIBITORS FOR THE TREATMENT OF NEURODEGENERATIVE AND/OR COGNITIVE DISORDERS” (Regenacy Pharmaceuticals, LLC, priority 2016, published 2017).
Entries after “also recorded” stand apart in the source; their conditions may differ.

Key:
HDAC1 = target: T1, HDAC1 (Homo sapiens, UniProt Q13547); assay: HDAC enzyme assay, HDAC1; assay type: biochemical; settings: enzyme and compound incubated 24 hours at room temperature
T1 construct: purchased BPS Biosciences
T1 sequence (Q13547 whole entry): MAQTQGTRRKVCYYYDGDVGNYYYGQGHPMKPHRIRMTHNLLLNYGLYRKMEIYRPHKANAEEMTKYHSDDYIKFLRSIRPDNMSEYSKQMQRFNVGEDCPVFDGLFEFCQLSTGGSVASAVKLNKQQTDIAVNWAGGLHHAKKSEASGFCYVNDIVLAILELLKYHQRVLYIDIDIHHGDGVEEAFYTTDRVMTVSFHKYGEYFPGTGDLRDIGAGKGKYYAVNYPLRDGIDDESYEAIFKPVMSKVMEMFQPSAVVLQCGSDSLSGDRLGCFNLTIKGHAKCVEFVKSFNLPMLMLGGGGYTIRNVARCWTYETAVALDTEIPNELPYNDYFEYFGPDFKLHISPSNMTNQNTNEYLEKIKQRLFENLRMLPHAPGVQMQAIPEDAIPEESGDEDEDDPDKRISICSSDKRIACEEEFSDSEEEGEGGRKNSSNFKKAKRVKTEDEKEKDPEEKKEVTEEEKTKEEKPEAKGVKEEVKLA
Description: Compounds for testing were diluted in DMSO to 50 fold the final concentration and a ten point three fold dilution series was made. The compounds were diluted in assay buffer (50 mM HEPES, pH 7.4, 100 mM KCl, 0.001% Tween-20, 0.05% BSA, 20 μM TCEP) to 6 fold their final concentration. The HDAC enzymes (purchased from BPS Biosciences) were diluted to 1.5 fold their final concentration in assay buffer. The tripeptide substrate and trypsin at 0.05 μM final concentration were diluted in assay buffer at 6 fold their final concentration. The final enzyme concentrations used in these assays were 3.3 ng/ml (HDAC1), 0.2 ng/ml (HDAC2) and 0.08 ng/ml (HDAC3). The final substrate concentrations used were 16 μM (HDAC1), 10 μM (HDAC2) and 17 μM (HDAC3). Five μl of compound and 20 μl of enzyme were added to wells of a black, opaque 384 well plate in duplicate. Enzyme and compound were incubated together at room temperature for 24 hours. Five μl of substrate was added to each well, the plate was shaken for 60 seconds and placed into a Victor 2 microtiter plate reader. The development of fluorescence was monitored for 60 min and the linear rate of the reaction was calculated. The IC50 was determined using Graph Pad Prism by a four parameter curve fit.

[1] = tested on: APPSwDI/NOS2−/− transgenic mice; assay: Radial arm water maze (RAWM) in APPSwDI/NOS2−/− model of Alzheimer's disease; assay type: in vivo; settings: 10 mg/kg orally daily for 4 weeks; for RAWM escape latency / RAWM number of errors: vs vehicle treated transgenic / wild type
Description: The ability of HDAC1/2 inhibitor Compound 1 to improve cognitive deficits of APPSwDI/NOS2−/− transgenic mice was tested in the radial arm water maze (RAWM).
The Study was performed on APPSwDI/NOS2−/− transgenic (mouse model of Alzheimer's disease) as well as non-transgenic mice, bred at Charles River (Finland). Animals for the main study are 10.5 months old at start. A total number of 45 transgenic (divided into 22 untreated and 23 treated) and 25 non-transgenic controls are used for the study
Transgenic mice are allocated to two different treatment groups, either treated with vehicle (20% HP-β-CD in water) or Compound 1 (dosage 10 mg/kg) administered orally via gavage daily for 4 weeks total. The application volume is 10 ml/kg/dose whereby each animal is weighed once a week and receives a volume according to its individual actual weight.
Spatial learning capacities of all animals were tested in the Radial Arm Water Maze (RAWM). Briefly a six arm maze was submerged in a pool of water, and a platform was placed at the end of one arm. The mouse received 15 trials per day for 2 days and on each trial was started in a different arm while the arm containing the platform remained the same for each mouse. The first 10 trials were considered training and alternated between a visible and a hidden platform. The final trials for day 1 and all trials on day 2 were tested with a hidden platform. The number of errors (incorrect arm entries) were counted over a 1 min period. The errors were averaged over six trials resulting in 5 blocks for the 2 day period. Latency to find the platform was also recorded, and averaged similarly as the errors.

[2] = APPSwDI/NOS2−/− mice, listed as compound 1, 10 mg/kg

## Nc1ccc(-c2ccccc2)cc1NC(=O)c1cc2ccc(N3CCNCC3)cc2cn1 [Compound 1]
HDAC1
  IC50: 5 nM
[1]; APPSwDI/NOS2−/− mice
  tolerability: very well tolerated in all animals
[1]; APPSwDI/NOS2−/− mice, vs vehicle treated transgenic
  learning behavior during training: significantly better learning behavior
[1]; APPSwDI/NOS2−/− mice, 10 mg/kg
  RAWM escape latency: improved escape latency time; also recorded: reversed the increased latency
  RAWM number of errors: decrease in the number of errors; also recorded: reversed the increased latency and number of errors
[1]; [2]
  RAWM escape latency: not statistically different from wild type mice
  RAWM number of errors: not statistically different from wild type mice
[1]; treatment groups
  body weight: no differences in body weight
